# According to patent publication US6048882A, “Prophylactic and therapeutic agent for hepatic diseases” (Nisshin Flour Milling Co., Ltd., priority 1995, dated 2000):
# Structures can show the parent of a compound that is named as a salt. Where two headings read alike, the source gives them in different places.
# Assays:
# [1] = test system: experimental hepatopathy models prepared by administering carbon tetrachloride; assay: Inhibitory action on hepatopathy in hepatopathy models by carbon tetrachloride (lipid emulsion; serum GPT and GOT); assay type: in vivo, ddY strain male mice; conditions: Mus musculus, iv, 20 h, i.v., one hour before carbon tetrachloride; for inhibition in vivo at 0.01 mg/kg: dose 10 μg/kg; for inhibition in vivo at 0.0001 mg/kg: dose 0.1 μg/kg; for inhibition in vivo at 0.001 mg/kg: dose 1 μg/kg
# Procedure: Carbon tetrachloride was diluted with olive oil to a concentration of 0.5% when administered. The present isoprenylamine derivatives were formulated into the lipid emulsions according to the method described in Pharmaceutical Example 8 and intravenously administered at a dose of 0.1-10 μg/kg one hour before the administration of carbon tetrachloride. 20 hours after the administration of carbon tetrachloride, blood samples were collected from animals under ether anesthesia and centrifuged. Then, serum GPT and GOT were determined and the respective inhibition rates were calculated on the bases of the serum GPT and GOT values obtained when the present isoprenylamine derivative was not administered being defined as 100, respectively.
# [2] = test system: experimental hepatopathy models prepared by D-galactosamine administration; assay: Inhibitory action on hepatopathy in hepatopathy models by D-galactosamine (serum GPT and GOT); assay type: in vivo, Wistar strain male mice; conditions: iv, 24 h, 2 hours after D-galactosamine; for inhibition in vivo at 0.03 mg/kg / inhibition in vivo at 0.01 mg/kg: lipid emulsion, i.v.; for inhibition in vivo at 0.03 mg/kg: dose 30 μg/kg; for inhibition in vivo at 0.01 mg/kg: dose 10 μg/kg; for inhibition in vivo at 3 mg/kg: dissolved in distilled water, dose 3000 μg/kg
# Procedure: In these tests, GPT (glutamic-pyruvic transaminase) and GOT (glutamic-oxaloacetic transaminase) were determined using kits for the determination of GPT and GOT upon the method by U. Lippi et al., Iatrozyme TA-Lq (available from Iatron Laboratories Inc.), wherein the NADH formed when enzymes act upon substrates can reduce nitrotetrazolium blue (NTB) via 1-methoxy-5-methylphenazinium methylsulfate (1-methoxy PMS) to form formazan, which is then subjected to colorimetric analysis at a wavelength of 560 nm.
# Inhibitory action of lipid emulsions containing the present isoprenylamine derivatives was evaluated by inhibition rates of GPT and GOT in experimental hepatopathy models prepared by D-galactosamine administration.
# The experimental hepatopathy model was prepared by intraperitoneal administration of D-galactosamine at 400 mg/kg to Wistar strain male […] weighing about 170 g. The present isoprenylamine derivative was formulated to a lipid emulsion according to the method described in Pharmaceutical Example 8, and was intravenously administered at a dose of 10-30 μg/kg 2 hours after the administration of D-galactosamine.
# 24 hours after the D-galactosamine administration, blood samples were collected form animals under ether anesthesia and centrifuged. Then, serum GPT and GOT were determined and the respective inhibition rates were calculated on the bases of the serum GPT and GOT values obtained when the present isoprenylamine derivatives were not administered being defined as 100, respectively.
# For comparison, glycyrrhizin ammonium (Tokyo Kasei Co.) dissolved in distilled water was administered in a similar manner to that for the isoprenylamine derivatives, blood sampling and determination were conducted and the serum GPT and GOT inhibition rates were calculated.
smiles,measurement,setting,value
"CC(C)=CCC/C(C)=C/CC/C(C)=C/CC/C(C)=C/CC/C(C)=C/CC/C(C)=C/CC/C(C)=C/CC/C(C)=C/CC/C(C)=C/CNCc1ccc(O)cc1 [Compound 8, N-solanesyl-4-hydroxybenzylamine hydrochloride]",inhibition in vivo at 0.01 mg/kg,[1]; read-out: GOT inhibition,25%
same,inhibition in vivo at 0.01 mg/kg,[1]; read-out: GPT inhibition,22%
"COc1c(C)c(CNC/C=C(\C)CC/C=C(\C)CC/C=C(\C)CC/C=C(\C)CC/C=C(\C)CC/C=C(\C)CC/C=C(\C)CC/C=C(\C)CCC=C(C)C)c(OC)c(OC)c1OC [Compound 14, N-solanesyl-2,3,4,5-tetramethoxy-6-methylbenzylamine hydrochloride]",inhibition in vivo at 0.03 mg/kg,[2]; read-out: GOT inhibition,55%
same,inhibition in vivo at 0.03 mg/kg,[2]; read-out: GPT inhibition,64%
"CC(C)=CCC/C(C)=C/CC/C(C)=C/CC/C(C)=C/CC/C(C)=C/CC/C(C)=C/CC/C(C)=C/CC/C(C)=C/CC/C(C)=C/CC/C(C)=C/CNCc1ccc2c(c1)OCO2 [Compound 20, N-decaprenylpiperonylamine hydrochloride]",inhibition in vivo at 0.0001 mg/kg,[1]; read-out: GOT inhibition,53%
same,inhibition in vivo at 0.0001 mg/kg,[1]; read-out: GPT inhibition,60%
same,inhibition in vivo at 0.01 mg/kg,[2]; read-out: GOT inhibition,44%
same,inhibition in vivo at 0.01 mg/kg,[2]; read-out: GPT inhibition,43%
"CC(C)=CCC/C(C)=C/CC/C(C)=C/CC/C(C)=C/CC/C(C)=C/CC/C(C)=C/CC/C(C)=C/CC/C(C)=C/CC/C(C)=C/CNCc1ccco1 [Compound 24, N-solanesyl-2-furfurylamine hydrochloride]",inhibition in vivo at 0.03 mg/kg,[2]; read-out: GOT inhibition,30%
same,inhibition in vivo at 0.03 mg/kg,[2]; read-out: GPT inhibition,25%
"CC1(C)[C@@H](O[C@H]2O[C@H](C(=O)O)[C@@H](O)[C@H](O)[C@H]2O[C@@H]2O[C@H](C(=O)O)[C@@H](O)[C@H](O)[C@H]2O)CC[C@]2(C)[C@H]3C(=O)C=C4[C@@H]5C[C@@](C)(C(=O)O)CC[C@]5(C)CC[C@@]4(C)[C@]3(C)CC[C@@H]12 [Glycyrrhizin ammonium, glycyrrhizin ammonium, reference compound]",inhibition in vivo at 3 mg/kg,[2]; read-out: GOT inhibition,22%
same,inhibition in vivo at 3 mg/kg,[2]; read-out: GPT inhibition,25%
"CC(C)=CCC/C(C)=C/CC/C(C)=C/CC/C(C)=C/CC/C(C)=C/CC/C(C)=C/CC/C(C)=C/CC/C(C)=C/CC/C(C)=C/CNCc1ccccc1 [Compound 7, N-solanesylbenzylamine hydrochloride]",inhibition in vivo at 0.001 mg/kg,[1]; read-out: GOT inhibition,42%
same,inhibition in vivo at 0.001 mg/kg,[1]; read-out: GPT inhibition,42%
"CC(C)=CCC/C(C)=C/CC/C(C)=C/CC/C(C)=C/CNCc1ccc2c(c1)OCO2 [Compound 1, N-geranylgeranylpiperonylamine hydrochloride]",inhibition in vivo at 0.001 mg/kg,[1]; read-out: GOT inhibition,13%
same,inhibition in vivo at 0.001 mg/kg,[1]; read-out: GPT inhibition,21%
"CC(C)=CCC/C(C)=C/CC/C(C)=C/CC/C(C)=C/CC/C(C)=C/CC/C(C)=C/CC/C(C)=C/CC/C(C)=C/CC/C(C)=C/CNCCc1ccc2c(c1)OCO2 [Compound 17, N-Solanesyl-2-(3,4-methylenedioxyphenyl)ethylamine Hydrochloride]",inhibition in vivo at 0.03 mg/kg,[2]; read-out: GOT inhibition,24%
same,inhibition in vivo at 0.03 mg/kg,[2]; read-out: GPT inhibition,23%
"CC(C)=CCC/C(C)=C/CC/C(C)=C/CC/C(C)=C/CC/C(C)=C/CNCc1ccc2c(c1)OCO2 [Compound 2, N-farnesylgeranylpiperonylamine hydrochloride]",inhibition in vivo at 0.01 mg/kg,[2]; read-out: GOT inhibition,23%
same,inhibition in vivo at 0.01 mg/kg,[2]; read-out: GPT inhibition,23%
"CC(C)=CCC/C(C)=C/CC/C(C)=C/CC/C(C)=C/CC/C(C)=C/CC/C(C)=C/CC/C(C)=C/CC/C(C)=C/CC/C(C)=C/CNCc1ccc(O)c(O)c1 [Compound 11, N-solanesyl-3,4-dihydroxybenzylamine hydrochloride]",inhibition in vivo at 0.03 mg/kg,[2]; read-out: GOT inhibition,41%
same,inhibition in vivo at 0.03 mg/kg,[2]; read-out: GPT inhibition,55%
"COc1ccc(CNC/C=C(\C)CC/C=C(\C)CC/C=C(\C)CC/C=C(\C)CC/C=C(\C)CC/C=C(\C)CC/C=C(\C)CC/C=C(\C)CCC=C(C)C)cc1OC [Compound 13, N-solanesylveratrylamine hydrochloride]",inhibition in vivo at 0.0001 mg/kg,[1]; read-out: GOT inhibition,14%
same,inhibition in vivo at 0.0001 mg/kg,[1]; read-out: GPT inhibition,21%
"CC(C)=CCC/C(C)=C/CC/C(C)=C/CC/C(C)=C/CC/C(C)=C/CC/C(C)=C/CC/C(C)=C/CC/C(C)=C/CC/C(C)=C/CNc1ccc2c(c1)OCO2 [Compound 16, N-solanesyl-(3,4-methylenedioxy)aniline hydrochloride]",inhibition in vivo at 0.03 mg/kg,[2]; read-out: GOT inhibition,48%
same,inhibition in vivo at 0.03 mg/kg,[2]; read-out: GPT inhibition,43%
"CC(C)=CCC/C(C)=C/CC/C(C)=C/CC/C(C)=C/CC/C(C)=C/CC/C(C)=C/CC/C(C)=C/CC/C(C)=C/CC/C(C)=C/CNCc1cccnc1 [Compound 26, N-solanesyl-3-pyridylmethylamine dihydrochloride]",inhibition in vivo at 0.03 mg/kg,[2]; read-out: GOT inhibition,40%
same,inhibition in vivo at 0.03 mg/kg,[2]; read-out: GPT inhibition,35%
"CC(C)=CCC/C(C)=C/CC/C(C)=C/CC/C(C)=C/CC/C(C)=C/CC/C(C)=C/CC/C(C)=C/CC/C(C)=C/CC/C(C)=C/CN(C)Cc1ccc2c(c1)OCO2 [Compound 19, N-methyl-N-solanesylpiperonylamine]",inhibition in vivo at 0.001 mg/kg,[1]; read-out: GOT inhibition,43%
same,inhibition in vivo at 0.001 mg/kg,[1]; read-out: GPT inhibition,31%
"CC(C)=CCC/C(C)=C/CC/C(C)=C/CC/C(C)=C/CC/C(C)=C/CC/C(C)=C/CC/C(C)=C/CC/C(C)=C/CC/C(C)=C/CC/C(C)=C/CC/C(C)=C/CNCc1ccc2c(c1)OCO2 [Compound 21, N-undecaprenylpiperonylamine hydrochloride]",inhibition in vivo at 0.001 mg/kg,[1]; read-out: GOT inhibition,38%
same,inhibition in vivo at 0.001 mg/kg,[1]; read-out: GPT inhibition,33%
"CC(C)=CCC/C(C)=C/CC/C(C)=C/CC/C(C)=C/CC/C(C)=C/CC/C(C)=C/CC/C(C)=C/CC/C(C)=C/CC/C(C)=C/CNCc1cccs1 [Compound 25, N-solanesyl-2-thienylamine hydrochloride]",inhibition in vivo at 0.03 mg/kg,[2]; read-out: GOT inhibition,32%
same,inhibition in vivo at 0.03 mg/kg,[2]; read-out: GPT inhibition,30%
"CC(C)=CCC/C(C)=C/CC/C(C)=C/CC/C(C)=C/CC/C(C)=C/CC/C(C)=C/CC/C(C)=C/CC/C(C)=C/CC/C(C)=C/CNCc1ccc2c(c1)OCO2 [Compound 15, N-solanesylpiperonylamine malate]",inhibition in vivo at 0.01 mg/kg,[1]; read-out: GOT inhibition,18%
same,inhibition in vivo at 0.01 mg/kg,[1]; read-out: GPT inhibition,24%
"CC(C)=CCC/C(C)=C/CC/C(C)=C/CC/C(C)=C/CC/C(C)=C/CC/C(C)=C/CNCc1ccc2c(c1)OCO2 [Compound 3, N-farnesylfarnesylpiperonylamine hydrochloride]",inhibition in vivo at 0.01 mg/kg,[2]; read-out: GOT inhibition,21%
same,inhibition in vivo at 0.01 mg/kg,[2]; read-out: GPT inhibition,20%
"COc1cc(CNC/C=C(\C)CC/C=C(\C)CC/C=C(\C)CC/C=C(\C)CC/C=C(\C)CC/C=C(\C)CC/C=C(\C)CC/C=C(\C)CCC=C(C)C)ccc1O [Compound 12, N-solanesyl-4-hydroxy-3-methoxybenzylamine hydrochloride]",inhibition in vivo at 0.03 mg/kg,[2]; read-out: GOT inhibition,42%
same,inhibition in vivo at 0.03 mg/kg,[2]; read-out: GPT inhibition,53%
"CC(C)=CCC/C(C)=C/CC/C(C)=C/CC/C(C)=C/CC/C(C)=C/CC/C(C)=C/CC/C(C)=C/CC/C(C)=C/CC/C(C)=C/CNCCCc1ccc2c(c1)OCO2 [Compound 18, N-solanesyl-3-(3,4-methylenedioxyphenyl)propylamine hydrochloride]",inhibition in vivo at 0.03 mg/kg,[2]; read-out: GOT inhibition,22%
same,inhibition in vivo at 0.03 mg/kg,[2]; read-out: GPT inhibition,20%
"CC(C)=CCC/C(C)=C/CC/C(C)=C/CC/C(C)=C/CC/C(C)=C/CC/C(C)=C/CC/C(C)=C/CC/C(C)=C/CC/C(C)=C/CNCc1ccc(C)cc1 [Compound 10, N-solanesyl-4-methylbenzylamine hydrochloride]",inhibition in vivo at 0.03 mg/kg,[2]; read-out: GOT inhibition,54%
same,inhibition in vivo at 0.03 mg/kg,[2]; read-out: GPT inhibition,63%
"CC(C)=CCC/C(C)=C/CC/C(C)=C/CC/C(C)=C/CC/C(C)=C/CC/C(C)=C/CC/C(C)=C/CC/C(C)=C/CC/C(C)=C/CNCc1ccc(Cl)cc1 [Compound 9, N-solanesyl-4-chlorobenzylamine hydrochloride]",inhibition in vivo at 0.03 mg/kg,[2]; read-out: GOT inhibition,47%
same,inhibition in vivo at 0.03 mg/kg,[2]; read-out: GPT inhibition,53%
"CC(C)=CCC/C(C)=C/CC/C(C)=C/CC/C(C)=C/CC/C(C)=C/CC/C(C)=C/CC/C(C)=C/CC/C(C)=C/CNCc1ccc2c(c1)OCO2 [Compound 5, N-farnesylfarnesylgeranylpiperonylamine hydrochloride]",inhibition in vivo at 0.01 mg/kg,[2]; read-out: GOT inhibition,29%
same,inhibition in vivo at 0.01 mg/kg,[2]; read-out: GPT inhibition,27%
